Reference: the supplement of paper PMC4862054
“And” between values parts separate entries of the source, which are not always exact repeats. Equal values may be shown once.

Legend:
Conditions in all cases: incubation time: 72 h
BT-474 [1] = experiment: drug sensitivity score (DSS), CellTiter-Blue viability (DSS (AUC-based score)); higher = stronger viability inhibition; extreme values may be limits of the assay
Method in brief: (§1)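 Cells from breast cancer lines were grown with compound for 72 h in 384-well plates, using a 5- or 9-concentration series. CellTiter-Blue fluorescence (560/590 nm) served as the viability readout, normalised plate by plate to 0.1 % DMSO and a positive kill control. A drug sensitivity score was computed as the area under the fitted dose-response curve.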

BT-549 [2] = experiment: as above
Method in brief: as §1

CAL-148 [3] = experiment: as above
Method in brief: as §1

CAL-51 [4] = experiment: as above
Method in brief: as §1

CAL-85-1 [5] = experiment: as above
Method in brief: as §1

DU-4475 = experiment: as above
Method in brief: as §1

HCC1143 [6] = experiment: as above
Method in brief: as §1

HCC1599 [7] = experiment: as above
Method in brief: as §1

HCC1937 = experiment: as above
Method in brief: as §1

HDQ-P1 = experiment: as above
Method in brief: as §1

Hs578T = experiment: as above
Method in brief: as §1

MDA-MB-231 = experiment: as above
Method in brief: as §1

MDA-MB-436 [8] = experiment: as above
Method in brief: as §1

MDA-MB-453 = experiment: as above
Method in brief: as §1

MDA-MB-468 [9] = experiment: as above
Method in brief: as §1

MFM-223 [10] = experiment: as above
Method in brief: as §1

BT-474 [11] = experiment: normalised response (% of control), CellTox Green; higher = less cell death (100 = DMSO, 0 = benzethonium chloride kill control)
Method in brief: (§2)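 Normalised signals at single concentrations make up the values. They come from breast cancer cell lines seeded (20 µl suspension) into 384-well plates with compound at 5 concentrations in 10-fold steps over a compound-specific 10,000-fold range, incubated 72 h, and read for CellTox Green fluorescence then CellTiter-Glo luminescence. Each plate was normalised to 0.1 % DMSO (100) and a positive kill control (0).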

BT-549 [12] = experiment: as above
Method in brief: as §2

CAL-120 = experiment: as above
Method in brief: as §2

CAL-148 [13] = experiment: as above
Method in brief: as §2

CAL-51 [14] = experiment: as above
Method in brief: as §2

CAL-85-1 [15] = experiment: as above
Method in brief: as §2

HCC1143 [16] = experiment: as above
Method in brief: as §2

HCC1599 [17] = experiment: as above
Method in brief: as §2

MCF-10A = experiment: as above
Method in brief: as §2

MDA-MB-436 [18] = experiment: as above
Method in brief: as §2

MDA-MB-468 [19] = experiment: as above
Method in brief: as §2

MFM-223 [20] = experiment: as above
Method in brief: as §2

Row | SMILES | drug sensitivity score (BT-474 [1]) | drug sensitivity score (BT-549 [2]) | drug sensitivity score (CAL-148 [3]) | drug sensitivity score (CAL-51 [4]) | drug sensitivity score (CAL-85-1 [5]) | drug sensitivity score (DU-4475) | drug sensitivity score (HCC1143 [6]) | drug sensitivity score (HCC1599 [7]) | drug sensitivity score (HCC1937) | drug sensitivity score (HDQ-P1) | drug sensitivity score (Hs578T) | drug sensitivity score (MDA-MB-231) | drug sensitivity score (MDA-MB-436 [8]) | drug sensitivity score (MDA-MB-453) | drug sensitivity score (MDA-MB-468 [9]) | drug sensitivity score (MFM-223 [10]) | normalised response (BT-474 [11]) | normalised response (BT-549 [12]) | normalised response (CAL-120) | normalised response (CAL-148 [13]) | normalised response (CAL-51 [14]) | normalised response (CAL-85-1 [15]) | normalised response (HCC1143 [16]) | normalised response (HCC1599 [17]) | normalised response (MCF-10A) | normalised response (MDA-MB-436 [18]) | normalised response (MDA-MB-468 [19]) | normalised response (MFM-223 [20])
1 | COc1ccc(-c2cc3c(C)nc(N)nc3n([C@H]3CC[C@H](OCCO)CC3)c2=O)cn1 | 19.6 | 19.1 | 18.3 | 21.2 | 16.7 | 13.7 | 13.8 | 16.2 | 18.2 | 22.5 | 20.1 | 19.9 | 17.9 | 24.6 | 17.2 | 19.1 |  |  |  |  |  |  |  |  |  |  |  | 
2 | Cc1cccc(-c2nn3c(c2-c2ccnc4ccc(C(N)=O)cc24)CCC3)n1 | 0 | 0 | 0 | 0 | 0 | 0 | 0 | 0 | 0 | 0 | 0 | 0 | 0 | 0 | 0 | 0 |  |  |  |  |  |  |  |  |  |  |  | 
3 | Cn1cc(CNCC2CCN(c3ncc(C(=O)NO)cn3)CC2)c2ccccc21 | 19.9 | 8.2 | 22.6 | 13.7 | 19.1 | 21.1 | 18.9 | 16.5 | 16.5 | 16.5 | 13.1 | 15 | 5.46 | 27.8 | 14.1 | 14.9 |  |  |  |  |  |  |  |  |  |  |  | 
4 | O=C(NC[C@H](O)CO)c1ccncc1Nc1ccc(I)cc1F | 0 | 0 | 3.49 | 3.9 | 6.9 | 35.2 | 13.8 | 4.05 | 0 | 10.3 | 0 | 21.9 | 0 | 4.94 | 0 | 0 |  |  |  |  |  |  |  |  |  |  |  | 
5 | Nc1nc(=O)c2c([nH]1)NCC(CNc1ccc(C(=O)N[C@@H](CCC(=O)O)C(=O)O)cc1)N2C=O (mixture of isomers) [Folinic acid] | 0 | 0 | 0 | 0 | 0 | 0 | 0 | 0 | 0 | 0 | 0 | 0 | 0 | 0 | 0 | 0 |  |  |  |  |  |  |  |  |  |  |  | 
6 | O=C(Nc1c[nH]nc1-c1nc2ccc(CN3CCOCC3)cc2[nH]1)NC1CC1 [AT9283] | 8.49 | 12.2 | 7.72 | 14 | 10 | 22.7 | 9.48 | 7.51 | 15.4 | 12.4 | 16.4 | 13.2 | 8.22 | 17.4 | 22.4 | 12.4 |  |  |  |  |  |  |  |  |  |  |  | 
7 | COc1cc(CCc2cc(NC(=O)c3ccc(N4CC(C)NC(C)C4)cc3)n[nH]2)cc(OC)c1 (stereo not given) [AZD4547] | 0 | 0 | 2.37 | 2.97 | 3.12 | 3.06 | 0 | 6.62 | 0 | 0 | 0 | 0 | 0 | 5.67 | 0 | 15.1 |  |  |  |  |  |  |  |  |  |  |  | 
8 | CCC/C=C/C=C/C(=O)O[C@H]1/C(=C/C(=O)OC)C[C@H]2C[C@H]([C@@H](C)O)OC(=O)C[C@H](O)C[C@@H]3C[C@H](OC(C)=O)C(C)(C)[C@](O)(C[C@@H]4C/C(=C/C(=O)OC)C[C@H](/C=C/C(C)(C)[C@]1(O)O2)O4)O3 [Bryostatin 1] | 0 | 0 | 16.1 | 0 | 7.23 | 0 | 6.66 | 16.1 | 0 | 0 | 0 | 0 | 0 | 0 | 0 | 0 |  |  |  |  |  |  |  |  |  |  |  | 
9 | CO[C@@H](C(=O)N1Cc2[nH]nc(NC(=O)c3ccc(N4CCN(C)CC4)cc3)c2C1)c1ccccc1 [Danusertib] | 0 | 9.37 | 13.2 | 13.4 | 10.7 | 14.2 | 8.76 | 6.9 | 10.8 | 14.3 | 11.3 | 11 | 4.87 | 18.4 | 15.5 | 0 |  |  |  |  |  |  |  |  |  |  |  | 
10 | Cc1nc(Nc2ncc(C(=O)Nc3c(C)cccc3Cl)s2)cc(N2CCN(CCO)CC2)n1 [Dasatinib] | 0 | 8.07 and 9.99 | 0 | 12.4 and 11.1 | 8.12 and 9 | 0 | 6.83 and 7.93 | 0 | 0 | 19.3 and 21.9 | 10.6 and 12.3 | 9.89 and 15.2 | 7.53 and 9.46 | 0 | 0 | 2.5 and 1.76 |  |  |  |  |  |  |  |  |  |  |  | 
11 | O=S(=O)(c1cccc2cnccc12)N1CCCNCC1 [Fasudil] | 0 | 0 | 0 | 0 | 0 | 0 | 0 | 0 | 0 | 0 | 0 | 0 | 0 | 0.912 | 0 | 1.41 |  |  |  |  |  |  |  |  |  |  |  | 
12 | CS(=O)(=O)N1CCN(Cc2cc3nc(-c4cccc5[nH]ncc45)nc(N4CCOCC4)c3s2)CC1 [GDC-0941] | 11.8 | 9.12 | 11.3 | 13.9 | 9.93 | 2.84 | 9.14 | 11.7 | 8.92 | 18.3 | 8.67 | 8.4 | 7.33 | 18.5 | 8.93 | 12.7 |  |  |  |  |  |  |  |  |  |  |  | 
13 | CNC(=O)c1cc(Oc2ccc(NC(=O)Nc3ccc(Cl)c(C(F)(F)F)c3)cc2)ccn1 [Sorafenib] | 0 |  | 0 | 0 |  | 0 | 0 | 0 | 0 | 0 | 0 | 0 | 0 | 0 | 0 |  |  |  |  |  |  |  |  |  |  |  |  | 
14 | CNC(=O)c1cc(Oc2ccc(NC(=O)Nc3ccc(Cl)c(C(F)(F)F)c3)cc2)ccn1 [Sorafenib] (1000 nM) |  |  |  |  |  |  |  |  |  |  |  |  |  |  |  |  | 100% | 111% | 101% | 74.5% | 115% | 89.9% | 101% | 97.5% | 89% | 87.5% | 70.1% | 92.8%
15 | CCN(CC)CCNC(=O)c1c(C)[nH]c(/C=C2\C(=O)Nc3ccc(F)cc32)c1C [Sunitinib] | 0 | 0 | 0 | 0 | 0 | 0 | 0 | 0 | 0 |  | 0 | 0 | 0 | 0 | 0 | 0 |  |  |  |  |  |  |  |  |  |  |  | 
16 | CCN(CC)CCNC(=O)c1c(C)[nH]c(/C=C2\C(=O)Nc3ccc(F)cc32)c1C [Sunitinib] (100 nM) |  |  |  |  |  |  |  |  |  |  |  |  |  |  |  |  | 103% | 127% | 98.3% | 86% | 86.5% | 99.8% | 107% | 106% | 108% | 97.1% | 102% | 101%
17 | CCN(CC)CCNC(=O)c1c(C)[nH]c(/C=C2\C(=O)Nc3ccc(F)cc32)c1C [Sunitinib] (1000 nM) |  |  |  |  |  |  |  |  |  |  |  |  |  |  |  |  | 95% | 104% | 98.2% | 85.4% | 106% | 66.5% | 82.8% | 105% | 80.6% | 106% | 66.4% | 99.2%
18 | CC[C@@]1(O)C(=O)OCc2c1cc1n(c2=O)Cc2cc3c(CN(C)C)c(O)ccc3nc2-1 [Topotecan] (100 nM) |  |  |  |  |  |  |  |  |  |  |  |  |  |  |  |  | 103% | 92.8% | 98.9% | 37.6% | 65% | 100% | 74.7% | 90.7% | 106% | 76.5% | 91.8% | 98%
19 | CC[C@@]1(O)C(=O)OCc2c1cc1n(c2=O)Cc2cc3c(CN(C)C)c(O)ccc3nc2-1 [Topotecan] (1000 nM) |  |  |  |  |  |  |  |  |  |  |  |  |  |  |  |  | 96.6% | 90.6% | 85% | 12% | 18.9% | 67.8% | 76.7% | 81.3% | 92.2% | 71% | -478% | 90.7%
